The values that follow come from patent US8580843B2, “Use of diindolylmethane (DIM) compounds and derivatives as neuroprotective agents” (Colorado State University Research Foundation, priority 2008, dated 2013).

One experiment concerns Nos2 mRNA. Kind of experiment: Semi-quantitative real-time RT-PCR of Nos2 mRNA in primary astrocytes challenged with MPTP and TNF-α/IFN-γ. The format is cell-based, mouse. An excerpt: Primary Cell Isolation. Cortical astrocytes were isolated from day-1 old C57B1/6 or transgenic mouse pups according to procedures described previously (Aschner and Kimelberg, 1991), and purity confirmed through immunofluorescent staining using antibodies against GFAP and Iba1. Briefly, pups were euthanized by decapitation under isofluorane anesthesia and cortices (astrocytes) or striatum (neurons) rapidly dissected out, and meninges removed. Tissue was subject to digestion with Dispase (1.5 U/ml), and selection of astrocytes was performed by complete media change 24 hrs after plating to remove non-astroglial cell types by serum shock. This method routinely results in cultures that are approximately 99% pure astrocytes, with less than 1% contaminating microglial cells (Supplementary FIG. 1). Astrocyte cultures were maintained at 37° C. and 5% CO2 in minimum essential media supplemented with 10% heat-inactivated fetal bovine serum and a penicillin (0.001 mg/ml), streptomycin (0.002 mg/ml), and neomycin (0.001) antibiotic cocktail. Cell media was changed 24 hrs prior to all treatments. Primary neuronal cultures were seeded onto poly-L-lysine-coated 30 mm glass coverslips at 4×10^5 cells per well, and maintained in neurobasal media supplemented with 2 mM L-glutamine, a B27 supplement, and a penicillin (0.001 mg/ml), streptomycin (0.002 mg/ml), and neomycin (0.001) antibiotic cocktail. Neuronal culture media was changed 24 hours after isolation and every two days afterward, and culture purity confirmed through cell morphology and immunostaining against GAD65/67 (Supplementary FIG. 2). Neurons were used within two weeks of plating. All animal procedures were approved by the Colorado State University Institutional Animal Care and Use Committee, and were conducted in accordance with published NIH guidelines.
RT and Real-Time RT-PCR. […] RNA was isolated using the RNEasy Mini kit (Qiagen, Valencia, Calif.), and purity and concentration were determined using a Nanodrop ND 1000 spectrophotometer (NanoDrop Technologies, Wilmington, Del.). Following purification, 1 ug of RNA was used as template for reverse transcriptase (RT) reactions using the iScript RT kit (BioRad, Hercules Calif.). The resulting cDNA was immediately profiled for Nos2 gene expression (forward: 5′-TCACGCTTGGGTCTTGTT-3′ (SEQ ID NO:1); reverse: 5′-[…] -3′3′ (SEQ ID NO:2)) using β-Actin as a housekeeping gene (forward: 5′-[…]-3′3′ (SEQ ID NO:3); reverse: 5′-CGCTCGTTGCCAATACTG-3′3′ (SEQ ID NO:4)) according to the 2^−ΔΔCT method (Livak and Schmittgen, 2001).
Background: Quantitative PCR measures a nucleic acid by following its amplification.

The test system of another experiment is NOS2 protein. Kind of experiment: Immunoblotting of NOS2 protein in astrocytes exposed to MPTP and TNF-α/IFN-γ. It counts as cell-based, mouse. The conditions noted are these: FIG. 7(C), concentration not given. From the text: Primary Cell Isolation. Cortical astrocytes were isolated from day-1 old C57B1/6 or transgenic mouse pups according to procedures described previously (Aschner and Kimelberg, 1991), and purity confirmed through immunofluorescent staining using antibodies against GFAP and Iba1. Briefly, pups were euthanized by decapitation under isofluorane anesthesia and cortices (astrocytes) or striatum (neurons) rapidly dissected out, and meninges removed. Tissue was subject to digestion with Dispase (1.5 U/ml), and selection of astrocytes was performed by complete media change 24 hrs after plating to remove non-astroglial cell types by serum shock. This method routinely results in cultures that are approximately 99% pure astrocytes, with less than 1% contaminating microglial cells (Supplementary FIG. 1). Astrocyte cultures were maintained at 37° C. and 5% CO2 in minimum essential media supplemented with 10% heat-inactivated fetal bovine serum and a penicillin (0.001 mg/ml), streptomycin (0.002 mg/ml), and neomycin (0.001) antibiotic cocktail. Cell media was changed 24 hrs prior to all treatments. […]
Western Blotting. […] Protein was quantified using the BCA assay (Pierce, Rockford Ill.), and 20 μg of protein were separated by standard SDS-PAGE using a 6% slab gel (BioRad, Hercules Calif.) followed by semi-dry transfer to polyvinylidene fluoride (PVDF) membrane (Pall Corp., Pensacola, Fla.). […]

Experiment [1] concerns primary striatal neurons co-cultured with activated astrocytes. Put plainly: Astrocyte-neuron co-culture: apoptosis of primary striatal neurons (caspase activity, Annexin V binding). The format is cell-based, mouse. Conditions: for Apoptosis in co-cultured striatal neurons (caspase activity and Annexin V-binding): astrocytes co-treated with 10 μM for 8 hours, six hours of co-culture, FIG. 6 C-D. On the procedure:
Astrocyte Neuron Co-Culture. Cells were isolated as described above and astrocytes grown to confluence on permeable cell culture inserts (BD Biosciences, San Jose, Calif.) prior to treatment. Astrocytes were then treated with MPTP (10 μM), TNF-α (10 pg/ml) and IFN-γ (1 ng/ml) in the presence or absence of DIM-C-pPhtBu (10 μM), Rosiglitazone (10 μM) AMT (25 nM), or DMSO vehicle control for 8 hours. Media was then removed, and the astrocytes washed three times with sterile PBS to prevent carryover of treatment medium to the neurons, and the inserts were placed directly in each well over cultured neurons. Astrocyte-containing inserts were removed following six hours of co-culture, and neuronal caspase activity and phosphatidylserine translocation were measured by widefield fluorescence microscopy using the general cell permeable fluorescent caspase substrate rhodamine 110, bis-(L-aspartic acid amide) and an Annexin V Alexa Fluor 680 conjugate, respectively. Images were acquired using a Zeiss 20× air PlanApochromat objective and at least 10 microscopic fields were examined per treatment group over three independent experiments.
The efficacy of DIM-C-pPhtBu in preventing astrocyte-dependent neuronal apoptosis was examined in FIG. 6. Astrocytes were grown to confluence in cell culture inserts that are permeable to small molecules but prevent direct cell-cell contact. Following treatment of astrocytes with MPTP and TNF-α/IFN-γ in the presence or absence of DIM-C-pPhtBu (10 μM), rosiglitazone (10 μM), the NOS2 inhibitor AMT (25 nM), or DMSO, astrocytes were washed with PBS and co-incubated directly above primary striatal neurons in neurobasal medium. Indices of neuronal apoptosis were then measured using live-cell fluorescence imaging of caspase activity (FIG. 6A) and Annexin V binding (FIG. 6B). […] The DMSO vehicle control had no suppressive effect.
Differing letters denote statistical significance (p<0.05).

For the next experiment, the system named is NF-kB-regulated genes. Kind of experiment: qPCR array analysis of NF-kB-regulated transcripts in primary astrocytes. The format is cell-based. The conditions noted are these: astrocytes + MPTP and TNF/IFN; DIM-C-pPhOCH3 1 uM, DIM-C-pPhtBu concentration not given; FIG. 11(A). On the procedure:
Expression of inflammatory genes in astrocytes is largely regulated through the NF-kB signaling pathway. Primary cultured astrocytes were treated with MPTP and TNF/IFN in the presence or absence DIM-C-pPhOCH3 (DIMS, 1 uM), DIM-C-pPhtBu (DIM4), rosiglitazone (Ro, 10 uM), or vehicle (DMSO) and subjected to qPCR array analysis of NF-kB-regulated transcripts (Superarray Biosciences). […] (n=4 biological replicates)

Setting [2] is: 10 μM, astrocytes + MPTP, TNF-α/IFN-γ, FIG. 2B.
Setting [3] is: astrocytes + MPTP, TNF-α, IFN-γ, FIG. 7(B), concentration not given.

As to `CN(CCOc1ccc(CC2SC(=O)NC2=O)cc1)c1ccccn1` (stereo not drawn) [rosiglitazone, 5-((4-(2-(methyl-2-pyridinylamino)ethoxy)phenyl)methyl)-2,4-thiazolidinedione, reference compound], the “Suppression of Nos2 mRNA” value is on record as “equivalent suppression of Nos2 to levels observed in saline-treated control astrocytes” with Nos2 mRNA (setting [2]) and “equivalent suppression of Nos2 mRNA” with Nos2 mRNA (setting [3]). In addition, the “Suppression of NOS2 protein expression” value with NOS2 protein is recorded as “suppression of NOS2 protein expression”. Further, the “Apoptosis in co-cultured striatal neurons (caspase activity and Annexin V-binding)” value in experiment [1] was “prevented”.

Take `CC(C)(C)c1ccc(C(c2c[nH]c3ccccc23)c2c[nH]c3ccccc23)cc1` [DIM-C-pPhtBu, 1,1-bis(3′-indolyl)-1-(p-t-butylphenyl)methane]: the “Suppression of Nos2 mRNA” value with Nos2 mRNA (setting [2]) is listed as “equivalent suppression of Nos2 to levels observed in saline-treated control astrocytes”. Moreover, the “Lowest dose that suppressed Nos2 induction to levels statistically indistinguishable from saline-treated control astrocytes” value in the experiment with Nos2 mRNA (primary astrocytes, MPTP + TNF-α/IFN-γ) amounted to 10 µM. The “Suppression of MPTP and TNF-α/IFN-γ induced Nos2 mRNA expression, dose response” value in the experiment on Nos2 mRNA (primary astrocytes, concentrations ranging from 1 to 100 μM, FIG. 2A) is “dose-dependently suppressed”. Besides, the “Apoptosis in co-cultured striatal neurons (caspase activity and Annexin V-binding)” value in experiment [1] was “prevented”. Moreover, the “Neuroinflammatory gene expression (TNF Receptor, Toll Receptor, Interleukin 1beta)” value in the experiment on NF-kB-regulated genes was “suppressed neuroinflammatory gene expression”.

Regarding `COc1ccc(C(c2c[nH]c3ccccc23)c2c[nH]c3ccccc23)cc1` [DIM-C-pPhOCH3, 1,1-bis(3′-indolyl)-1-(p-methoxyphenyl)methane], the “Suppression of Nos2 mRNA” value in the experiment with Nos2 mRNA (setting [3]) is recorded as “equivalent suppression of Nos2 mRNA”. Also, the “Suppression of Nos2 mRNA, dose response” value in the experiment on Nos2 mRNA (concentrations ranging from 0.1 to 3 μM, astrocytes + MPTP, TNF-α, IFN-γ, FIG. 7(A)) is reported as “dose-responsive suppression”. In addition, the “Suppression of NOS2 protein expression” value in the experiment with NOS2 protein is listed as “suppression of NOS2 protein expression”. For the same compound, in experiment [1] (1 uM on astrocytes for 24 hrs, then 6 hrs with primary striatal neurons, FIG. 10(A)), the “Annexin V binding in neurons increased by MPTP and cytokine treatment” value was “inhibited”. Moreover, in experiment [1] (1 uM on astrocytes for 24 hrs, then 6 hrs with primary striatal neurons, FIG. 10(B)), the “Activation of astrocytes and subsequent neuronal apoptosis (quantitative Annexin V fluorescence)” value is given as “significantly reduced”. Further, the “Neuroinflammatory gene expression (TNF Receptor, Toll Receptor, Interleukin 1beta)” value in the experiment on NF-kB-regulated genes is “suppressed neuroinflammatory gene expression”.
